Assay results from US10828301B2, “2,4-pyrimidinediamine compounds and their uses” (Rigel Pharmaceuticals, Inc, priority 2002, dated 2020).

Experiments:
[1] = tested on: FcεR1-mediated degranulation in mast cells; assay: FcεRI-mediated (anti-IgE induced) degranulation assay in mast cells; type: cell-based; conditions: Mast cell; range stated for the whole listed group of compounds; read-out: inhibition of FcεR1-mediated degranulation in mast cells (IC50s)
[2] = biological target: FcγRI receptor-mediated degranulation; assay: FcγRI-mediated degranulation (activation with anti-human IgG Fab fragment); conditions: cells not primed with IgE, activated with rabbit anti-human IgG Fab fragment
Syk kinase = Syk kinase (Homo sapiens (Human), UniProt P43405); assay: Isolated Syk kinase biochemical assay (phosphorylation of a peptide or endogenous substrate); conditions: increasing concentrations, FIG. 8
[3] = tested on: proteins downstream of Syk kinase and LYN kinase in activated CHMC cells; assay: Phosphorylation of proteins in the FcεRI signal transduction cascade in activated CHMC cells; type: cell-based, human; conditions: FIG. 10

## Oc1cccc(Nc2ncc(F)c(Nc3cccc(O)c3)n2)c1 [Compound R921218, N2,N4-Bis(3-hydroxyphenyl)-5-fluoro-2,4-pyrimidinediamine]
[1]
  IC50: 0.03 to 1.65 µM
[2]
  inhibition of FcγRI-mediated degranulation: inhibit FcγRI-mediated degranulation
Syk kinase
  Syk kinase phosphorylation of an endogenous substrate (LAT) and a peptide substrate: dose responsive inhibition
[3]
  phosphorylation of proteins downstream of Syk kinase in the FcεRI signal transduction cascade: inhibit phosphorylation
